Results taken from publication PMC12469672, “Effects on Oral Squamous Carcinoma Cell Lines and Their Mechanisms of Pyrazole N-Aryl Sulfonate: A Novel Class of Selective Cyclooxygenase-2 Inhibitors” (International Journal of Molecular Sciences, 2025).
Like-named read-outs stand apart in the source and are kept apart here.

Experiments:
CAL-27 cells [1] = test: CCK-8 proliferation assay, CAL-27; assay type: cell-based; details: Homo sapiens
Description: (§1) The OSCC cell lines CAL-27 (STCC12901P, Servicebio, Wuhan, China) and SAS (CC0706, Cellcook, Guangzhou, China) were cultured in Dulbecco Modified Eagle Medium F12 (DMEM/F12) (G4610-500ML, Servicebio, Wuhan, China) supplemented with 10% fetal bovine serum (FBS) (AB-FBS-DIA1050, ABW, Shanghai, China) and 100 U/mL penicillin-streptomycin-gentamicin solution (G4014-100ML, Servicebio, Wuhan, China). VERO cells were cultured in DMEM (G4524-500ML, Servicebio, Wuhan, China) supplemented with 10% FBS (AB-FBS-DIA1050, ABW, China) and 100 U/mL penicillin–streptomycin–gentamicin solution (G4014-100ML, Servicebio, Wuhan, China). […] were maintained at 37 °C in a humidified 5% CO2 incubator. For experiments, 1 × 10^6 cells were seeded per T-25 culture flask.
(§2) CAL-27, SAS, and VERO cells were seeded in 96-well plates at a density of 5000 cells per well. At specified time intervals, 10 μL of Cell Counting Kit-8 (CCK-8) reagent (K1018, Apexbio, Boston, MA, USA) was added to each well and incubated for 2 h. Absorbance at 450 nm was measured using a microplate reader (Infinite M200 Pro, Tecan Group, Männedorf, Switzerland).

SAS cells [2] = test: CCK-8 proliferation assay, SAS; assay type: cell-based
Description: as §1, §2

VERO cells = test: CCK-8 cytotoxicity assay, VERO; assay type: cell-based, African green monkey; details: Chlorocebus sabaeus; VERO, CCK-8, 24 h
Description: as §1, §2

COX-2 mRNA in SAS cells = test: RT-qPCR COX-2 mRNA, SAS; assay type: cell-based; details: working concentrations, 24 h, vs control
Description: (§3) Equal amounts of RNA were reverse transcribed into cDNA using the Reverse Transcription Kit (AG11705, Accurate Biology, Guangzhou, China) following the manufacturer’s instructions. Quantitative PCR was performed on a QIAGEN Rotor-GeneQ system (9001862, QIAGEN, Hilden, Germany) with SYBR Green Pro Taq HS Premix II (AG11702, Accurate Biology, China).
(§4) The PCR protocol consisted of initial denaturation at 95 °C for 30 s, followed by 40 cycles of 95 °C for 5 s and 60 °C for 30 s. All reactions were performed in triplicate, with melting curve analysis confirming amplification specificity. The expression of the target genes was normalized to GAPDH, and fold changes were calculated in the manner of the 2^−ΔΔCT .

COX-2 in SAS cells = test: ELISA COX-2, SAS; assay type: cell-based; details: working concentrations, vs control (compounds also vs CXB)
Description: With the aim of determining COX-2 concentrations in OSCC cell lines after treatment at the predefined working concentrations, we used a specialized ELISA kit (F0564-A, FANKEW, Shanghai, China), following the manufacturer’s instructions. Briefly, 40 μL of the sample dilution and 10 μL of the sample (sample final dilution is 5-fold) were added to testing sample wells and incubated for 30 min at 37 °C. After that, discard the liquid and wash the plate using washing buffer. Repeat 5 times, drying by patting. Subsequently, samples were incubated with 50 μL of HRP-conjugate reagent in each well for 30 min at 37 °C. Wash 5 times, then add Chromogen Solution A and B and incubate for 10 min at 37 °C. Lastly, 50 μL of stop solution was added to each well to stop the reaction, and the sample absorbance was measured using a microplate reader at 450 nm after adding stop solution within 15 min.

[3] = test system: MMP2 mRNA in CAL-27 cells; test: RT-qPCR MMP2 mRNA, CAL-27; assay type: cell-based; details: CAL-27, 24 h, vs control
Description: as §3, §4

[4] = test system: MMP9 mRNA in CAL-27 cells; test: RT-qPCR MMP9 mRNA, CAL-27; assay type: cell-based; details: CAL-27, 24 h, vs control
Description: as §3, §4

MMP2 mRNA in SAS cells = test: RT-qPCR MMP2 mRNA, SAS; assay type: cell-based; details: vs control
Description: as §3, §4

CAL-27 cells [5] = test: Hoechst 33342 staining, CAL-27; assay type: cell-based; details: CAL-27, 24 h, working concentrations, vs NC
Description: (§5) After 24 h drug treatment at the predefined working concentrations, CAL-27 and SAS cells were dyed with 300 μL Hoechst 33342 staining (C1022, Beyotime, China) in the dark at 37 °C for 10 min. Then, the residual Hoechst 33342 staining was washed 3 times with 1 × phosphate-buffered saline (PBS, G4250-500ML, Servicebio, China). The images were then immediately examined under an inverted fluorescence microscope (CX23, Olympus, Japan).

SAS cells [6] = test: Hoechst 33342 staining, SAS; assay type: cell-based; details: 24 h, working concentrations, vs NC
Description: as §5

CAL-27 cells [7] = test: Annexin V-FITC/PI flow cytometry apoptosis, CAL-27; assay type: cell-based; details: CAL-27, 24 h, vs control
Description: (§6) After 24 h drug treatment at the predefined working concentrations, CAL-27 and SAS cells were trypsinized, centrifuged (200× g, 5 min, RT), and washed twice with 1 mL ice-cold PBS. Cell aliquots ((5–10) × 10^4 cells) were resuspended in 195 μL Annexin V-FITC binding buffer, followed by sequential addition of 5 μL Annexin V-FITC and 10 μL propidium iodide (PI) (BMS500FI-100, Thermo Fisher Scientific, Wien, Austria) with gentle mixing. After 10–20 min of incubation in darkness (20–25 °C) with intermittent resuspension (2–3 times), samples were placed on ice and analyzed within 1 h using a flow cytometer (CytExpert software [Version 2.4.0.28, Beckman Coulter, Brea, CA, USA]). Triplicate independent experiments were performed for statistical analysis.

SAS cells [8] = test: Annexin V-FITC/PI flow cytometry apoptosis, SAS; assay type: cell-based; details: 24 h, vs control
Description: as §6

Structure (SMILES): Cc1ccc(-c2cc(C(F)(F)F)nn2-c2ccc(S(N)(=O)=O)cc2)cc1 [CXB, celecoxib, reference compound]
- IC50 (CAL-27 cells [1]; CAL-27, 24 h, read-out: IC50 (range), CAL-27, CCK-8, 24 h, given as a range): 52.4 to 61.9 µM
- IC50 (CAL-27 cells [1]; CAL-27, CAL-27, CCK-8, read-out: IC50 CAL-27): 57 µM
- IC50 (SAS cells [2]; 24 h, read-out: IC50 (range)): 53.9 to 61.5 µM
- IC50 (SAS cells [2]; SAS, CCK-8, read-out: IC50 SAS): 57.6 µM
- IC50 (VERO cells): 243 µM
- COX-2 mRNA level (COX-2 mRNA in SAS cells): marked upregulation
- COX-2 level (ELISA) (COX-2 in SAS cells): no marked difference
- MMP2 mRNA expression [3]: even lower
- MMP9 mRNA expression [4]: even lower
- MMP2 mRNA expression (MMP2 mRNA in SAS cells): markedly suppressed
- apoptotic cells (Hoechst 33342, fluorescence microscopy) (CAL-27 cells [5]): significant increase
- apoptotic cells (Hoechst 33342, fluorescence microscopy) (SAS cells [6]): significant increase
- total apoptotic cell population (early and late apoptosis) (CAL-27 cells [7]): comparable pro-apoptotic efficacy
- total apoptotic cell population (early and late apoptosis) (SAS cells [8]): comparable pro-apoptotic efficacy
